# Read-outs that look alike come from different tables or passages of the source.
# Tested on: human rhabdomyosarcoma RH-30
# Format: in vivo
# Details: for Average body weight change in % per mouse at nadir / Drug death (Day of death) / Regressions Complete / Regressions Partial / Tumor free survivors at day 120 / day of nadir / ΔT/ΔC in % (day 27) / Biological interpretation: 18
# Method: This efficacy may be quantified, for example, as changes in tumor volume for each treated (T) and control (C) group, which are calculated for each animal and each day by subtracting the tumor volume on the day of first treatment (staging day) from the tumor volume on the specified observation day. This allows calculating the tumor growth inhibition: ΔT/ΔC=(median delta T/median delta C)×100. Individual tumor volume changes from baseline are thereafter analyzed by a non-parametric two-way ANOVA-TYPE (with factors: group and repeated days) followed by a post-hoc contrasts analysis, with Bonferroni-Holm adjustment for multiplicity, comparing all treated groups to the control group. […] A probability less than 5% (p<0.05) was considered as significant.
# Based on the National Cancer Institute (NCl) standards, a ΔT/ΔC≦40% is the minimal level required to declare activity.
# The tumor doubling time (in days; Td) was estimated from the plot of the log linear growth of the control group tumors in exponential growth (100 to 1000 mm^3 range) [T. H. Corbett et al., Cancer, 40: 2660-2680 (1977); F. M. Schabel et al., Cancer Drug Development, Part B, Methods in Cancer Research, 17: 3-51, New York, Academic Press Inc. (1979)].
# This efficacy may also be quantified by the number of tumor regressions observed after therapy. Individual mice reporting a tumor volume ≦50% of the Day 0 measurement for two consecutive measurements over a seven day period were considered partial responders (PR). Individual mice lacking palpable tumors (<4×4 mm^2 for two consecutive measurements over a seven day period) were classified as complete responders (CR); a CR that persisted until study completion was considered a tumor-free survivor (TFS).
# The animals subjected to the experiment are subcutaneously grafted unilaterally with approximately 30 mg of a tumor fragment on day 0. The animals are implanted with a human tumor xenografted in immunocompromized mice. Several days post tumor implantation, mice are randomized according to their body weight to the different groups of treatments and controls. The animals are observed every day. […] The groups are then weighed once or twice a week until the end of the trial.
# The tumors are measured 1 to 5 times a week, depending on the tumor doubling time, until the tumor reaches approximately 1,000 mm^3, or until the animal dies (if this occurs before the tumor reaches 1,000 mm^3). The animals are necropsied immediately after euthanasia or death.
# The selected tumor model was a human rhabdomyosarcoma RH-30, xenografted in SCID mice [Douglass E C, et al. Cytogenet Cell Genet. 1987; 45(3-4):14855.].
# Treatment solutions were prepared first by mixing 1 volume of ethanolic stock solution and 1 volume of polysorbate 80, then by adding 18 volumes of glucose 5% in water.
# [1] = 3.5 mg/kg per injection (total 7.0) IV days 14
# [2] = 5.6 mg/kg per injection (total 11.2) IV days 14
# [3] = 5.6 mg/kg per injection (total 11.2) IV days 14, listed as CABAZITAXEL
# [4] = 9.0 mg/kg per injection (total 18) IV days 14
# [5] = 14.5 mg/kg per injection (total 29) IV days 14
# [6] = 14.5 mg/kg per injection (total 29) IV days 14, listed as CABAZITAXEL
structure (smiles),measurement,setting,value
"CO[C@H]1C(=O)[C@]2(C)[C@@H](OC)C[C@H]3OC[C@@]3(OC(C)=O)[C@H]2[C@H](OC(=O)c2ccccc2)[C@]2(O)C[C@H](OC(=O)[C@H](O)[C@@H](NC(=O)OC(C)(C)C)c3ccccc3)C(C)=C1C2(C)C [Cabazitaxel, 4α-acetoxy-2α-benzoyloxy-5β,20-epoxy-1β-hydroxy-7β,10β-dimethoxy-9-oxo-11-taxen-13α-yl (2R,3S)-3-tert-butoxycarbonyl-amino-2-hydroxy-3-phenylpropionate]",Average body weight change in % per mouse at nadir,[1],−10.1%
same,Drug death (Day of death),[1],0/6
same,Regressions Complete,[1],0/6
same,Regressions Partial,[1],0/6
same,Tumor free survivors at day 120,[1],0/6
same,day of nadir,[1],(24) day
same,ΔT/ΔC in % (day 27),[1],24%
same,Biological interpretation,"3.5 mg/kg per injection (total 7.0) IV days 14, listed as CABAZITAXEL",Active
same,Biological interpretation,"3.5 mg/kg per injection (total 7.0) IV days 14, listed as cabazitaxel",active
same,Tumor volume changes from baseline: Median (nMad),"3.5 mg/kg, day 18",307 (35.6)
same,Tumor volume changes from baseline: Median (nMad),"3.5 mg/kg, day 22",418 (258)
same,Tumor volume changes from baseline: Median (nMad),"3.5 mg/kg, day 29",356.5
same,Average body weight change in % per mouse at nadir,[2],−15.3%
same,Drug death (Day of death),[2],0/6
same,Regressions Complete,[2],2/6
same,Regressions Partial,[2],5/6
same,Tumor free survivors at day 120,[2],0/6
same,day of nadir,[2],(28) day
same,Biological interpretation,[3],Highly
same,ΔT/ΔC in % (day 27),[3],0%
same,Biological interpretation,"5.6 mg/kg per injection (total 11.2) IV days 14, listed as cabazitaxel",highly active
same,Tumor volume changes from baseline: Median (nMad),"5.6 mg/kg, day 18",164 (30.4)
same,Tumor volume changes from baseline: Median (nMad),"5.6 mg/kg, day 19",203 (80.1)
same,Tumor volume changes from baseline: Median (nMad),"5.6 mg/kg, day 20",302.5
same,Tumor volume changes from baseline: Median (nMad),"5.6 mg/kg, day 22",192.5
same,Tumor volume changes from baseline: Median (nMad),"5.6 mg/kg, day 27",0 (130.5)
same,Tumor volume changes from baseline: Median (nMad),"5.6 mg/kg, day 29",106 (147.5)
same,Tumor volume changes from baseline: Median (nMad),"5.6 mg/kg, day 33",−85 (117.1)
same,Tumor volume changes from baseline: Median (nMad),"5.6 mg/kg, day 39",−139 (113.4)
same,Tumor volume changes from baseline: Median (nMad),"5.6 mg/kg, day 41",−157 (113.4)
same,Tumor volume changes from baseline: Median (nMad),"5.6 mg/kg, day 43",−104.5
same,Tumor volume changes from baseline: Median (nMad),"5.6 mg/kg, day 35",−120 (98.6)
same,Average body weight change in % per mouse at nadir,[4],−8.0%
same,Biological interpretation,[4],very active
same,Drug death (Day of death),[4],0/6
same,Regressions Complete,[4],6/6
same,Regressions Partial,[4],6/6
same,Tumor free survivors at day 120,[4],5/6
same,day of nadir,[4],(25) day
same,ΔT/ΔC in % (day 27),[4],7%
same,Biological interpretation,"9.0 mg/kg per injection (total 18) IV days 14, listed as CABAZITAXEL",Very
same,Tumor volume changes from baseline: Median (nMad),"9 mg/kg, day 18",138.5
same,Tumor volume changes from baseline: Median (nMad),"9 mg/kg, day 29",62.5 (91.9)
same,Tumor volume changes from baseline: Median (nMad),"9 mg/kg, day 33",−129 (142.3)
same,Tumor volume changes from baseline: Median (nMad),"9 mg/kg, day 39",−189.5
same,Tumor volume changes from baseline: Median (nMad),"9 mg/kg, day 41",−189.5
same,Tumor volume changes from baseline: Median (nMad),"9 mg/kg, day 43",−189.5
same,Tumor volume changes from baseline: Median (nMad),"9 mg/kg, day 35",−180 (94.9)
same,Average body weight change in % per mouse at nadir,[5],−15.0%
same,Drug death (Day of death),[5],0/6
same,Regressions Complete,[5],6/6
same,Regressions Partial,[5],6/6
same,Tumor free survivors at day 120,[5],6/6
same,day of nadir,[5],(24) day
same,Biological interpretation,[6],Highly
same,ΔT/ΔC in % (day 27),[6],<0%
same,Biological interpretation,"14.5 mg/kg per injection (total 29) IV days 14, listed as cabazitaxel",highly active
same,Tumor volume changes from baseline: Median (nMad),"14.5 mg/kg, day 29",−107 (150.5)
same,Tumor volume changes from baseline: Median (nMad),"14.5 mg/kg, day 33",−180 (66)
same,Tumor volume changes from baseline: Median (nMad),"14.5 mg/kg, day 46",−194 (74.1)
same,Tumor volume changes from baseline: Median (nMad),"14.5 mg/kg, day 50",−194 (74.1)
same,Tumor volume changes from baseline: Median (nMad),"14.5 mg/kg, day 35",−194 (74.1)
same,Tumor volume changes from baseline: Median (nMad),"14.5 mg/kg, day 39",−194 (74.1)
same,Tumor volume changes from baseline: Median (nMad),"14.5 mg/kg, day 41",−194 (74.1)
same,Tumor volume changes from baseline: Median (nMad),"14.5 mg/kg, day 43",−194 (74.1)
same,antitumor activity compared with docetaxel,conclusion of example 1,more active than docetaxel

# From patent US20140350273A1, “PEDIATRIC USES OF CABAZITAXEL” (AVENTIS PHARMA S.A., priority 2012, published 2014)
